Laboratory results reported in US8940779B2, “Microbicidal composition” (Rohm and Haas Company, priority 2007, dated 2015).
Several values for one entry are separate records, joined by “and”; a condition that tells them apart may be missing. Equal values may be shown once. Read-outs that look alike come from different tables or passages of the source.

Key:
Assay type in all cases: cell-based
[1] = system: Aspergillus niger (A. niger, ATCC 16404); assay: Microtiter plate MIC synergy test (Kull synergy index), mold; conditions: for Ca, first component alone (QA, MIC): A. niger, component acting alone; for MIC: Aspergillus niger
Source text: (§1) One measure of synergism is the industrially accepted method described by Kull, F. C.; Eisman, P. C.; Sylwestrowicz, H. D. and Mayer, R. L., in Applied Microbiology 9:538-541 (1961), using the ratio determined by the formula: Qa/QA+Qb/QB=Synergy Index (“SI”) wherein: • QA=concentration of compound A (first component) in ppm, acting alone, which produced an end point (MIC of Compound A). • Qa=concentration of compound A in ppm, in the mixture, which produced an end point. • QB=concentration of compound B (second component) in ppm, acting alone, which produced an end point (MIC of Compound B). • Qb=concentration of compound B in ppm, in the mixture, which produced an end point.
(§2) When the sum of Qa/QA and Qb/QB is greater than one, antagonism is indicated. […] The lower the SI, the greater the synergy shown by that particular mixture. The minimum inhibitory concentration (MIC) of a microbicide is the lowest concentration tested under a specific set of conditions that prevents the growth of added microorganisms.
(§3) Synergy tests were conducted using standard microtiter plate assays with media designed for optimal growth of the test microorganism. Minimal salt medium supplemented with 0.2% glucose and 0.1% yeast extract (M9GY medium) was used for testing bacteria; Potato Dextrose Broth (PDB medium) was used for testing yeast and mold. In this method, a wide range of combinations of microbicides was tested by conducting high resolution MIC assays in the presence of various concentrations of MBIT. High resolution MICs were determined by adding varying amounts of microbicide to one column of a microtitre plate and doing subsequent […] dilutions using an automated liquid handling system to obtain a series of endpoints ranging from 2 ppm to 10,000 ppm active ingredient.
(§4) The synergy of the combinations of the present invention was determined against a bacterium, Escherichia coli (E. coli—ATCC #8739), a yeast, Candida albicans (C. albicans—ATCC 10231), and a mold, Aspergillus niger (A. niger—ATCC 16404). The bacteria were used at a concentration of about 5×10^6 bacteria per mL and the yeast and mold at 5×10^5 fungi per mL. These microorganisms are representative of natural contaminants in many consumer and industrial applications. […] (yeast and mold) or 30° C. (bacteria).
(§5) In each test, Second Component (B) was MBIT and the First Component (A) was the other commercial microbicide.

[2] = system: Candida albicans (C. albicans, ATCC 10231); assay: Microtiter plate MIC synergy test (Kull synergy index), yeast; conditions: for Ca, first component alone (QA, MIC) / Cb, MBIT alone (QB, MIC): C. albicans; for Ca, first component alone (QA, MIC): component acting alone; for Cb, MBIT alone (QB, MIC): MBIT acting alone; for MIC: Candida albicans, ATCC10231
Source text: as §1, §2, §3, §4, §5

S. aureus ATCC#6538 = assay: Microtiter plate MIC synergy test (Kull synergy index), bacterium; conditions: for Ca, first component alone (QA, MIC) / Cb, MBIT alone (QB, MIC): S. aureus; for Ca, first component alone (QA, MIC): component acting alone; for Cb, MBIT alone (QB, MIC): MBIT acting alone; for MIC: Staphylococcus aureus, ATCC6538
Ps. aeruginosa ATCC#9027 = assay: as above; conditions: for Ca, first component alone (QA, MIC) / Cb, MBIT alone (QB, MIC): Ps. aeruginosa; for Ca, first component alone (QA, MIC): component acting alone; for Cb, MBIT alone (QB, MIC): MBIT acting alone; for MIC: Pseudomonas aeruginosa, ATCC9027

N#CC(Br)(Br)C(N)=O [DBNPA, 2,2-Dibromo-3-nitrilopropionamide]
Ca, first component alone (QA, MIC) ([1]; contact time 3 days): 42.5 ppm AI
Ca, first component alone (QA, MIC) ([1]; contact time 7 days): 200 ppm AI
Ca, first component alone (QA, MIC) ([2]; contact time 48 hrs): 44 ppm AI
Ca, first component alone (QA, MIC) ([2]; contact time 72 hrs): >44 ppm AI
Ca, first component alone (QA, MIC) (S. aureus ATCC#6538; contact time 48 hrs): 8.5 ppm AI
Ca, first component alone (QA, MIC) (Ps. aeruginosa ATCC#9027; contact time 24 hrs): 4.25 ppm AI
Ca, first component alone (QA, MIC) (Ps. aeruginosa ATCC#9027; contact time 48 hrs): 5.25 ppm AI

C=O [HCHO, Formaldehyde]
Ca, first component alone (QA, MIC) ([1]; contact time 3 days): 200 ppm AI
Ca, first component alone (QA, MIC) ([1]; contact time 7 days): 425 ppm AI
Ca, first component alone (QA, MIC) ([2]; contact time 48 hrs): 425 ppm AI
Ca, first component alone (QA, MIC) ([2]; contact time 72 hrs): 525 ppm AI
Ca, first component alone (QA, MIC) (S. aureus ATCC#6538; contact time 24 hrs): 30 ppm AI
Ca, first component alone (QA, MIC) (S. aureus ATCC#6538; contact time 48 hrs): 30 ppm AI
Ca, first component alone (QA, MIC) (Ps. aeruginosa ATCC#9027; contact time 24 hrs): 15 ppm AI
Ca, first component alone (QA, MIC) (Ps. aeruginosa ATCC#9027; contact time 48 hrs): 26.25 ppm AI

Cn1sc2ccccc2c1=O [MBIT, N-methyl-1,2-benzisothiazolin-3-one]
Cb - ppm AI of MBIT (MIC end-point; alone QB or in the mixture Qb) ([1]; A. niger ATCC # 16404, contact time 3 days, Table 5): 37.5 ppm
Cb - ppm AI of MBIT (MIC end-point; alone QB or in the mixture Qb) ([1]; A. niger ATCC # 16404, contact time 3 days, Table 6): 37.5 ppm
Cb - ppm AI of MBIT (MIC end-point; alone QB or in the mixture Qb) ([1]; A. niger ATCC # 16404, contact time 7 days, Table 5): 150 ppm
Cb - ppm AI of MBIT (MIC end-point; alone QB or in the mixture Qb) ([1]; A. niger ATCC # 16404, contact time 7 days, Table 6): 150 ppm
Cb - ppm AI of MBIT (MIC end-point; alone QB or in the mixture Qb) ([2]; C. albicans ATCC # 10231, contact time 48 hrs, Table 5): 30 ppm
Cb - ppm AI of MBIT (MIC end-point; alone QB or in the mixture Qb) ([2]; C. albicans ATCC # 10231, contact time 48 hrs, Table 6): 30 ppm
Cb - ppm AI of MBIT (MIC end-point; alone QB or in the mixture Qb) ([2]; C. albicans ATCC # 10231, contact time 72 hrs, Table 5): 30 ppm
Cb - ppm AI of MBIT (MIC end-point; alone QB or in the mixture Qb) ([2]; C. albicans ATCC # 10231, contact time 72 hrs, Table 6): 30 ppm
Cb, MBIT alone (QB, MIC) ([2]; contact time 48 hrs): 30 ppm AI
Cb, MBIT alone (QB, MIC) ([2]; contact time 72 hrs): 30 ppm AI
Cb - ppm AI of MBIT (MIC end-point; alone QB or in the mixture Qb) (S. aureus ATCC#6538; S. aureus ATCC#6538, contact time 24 hrs, Table 5): 30 ppm
Cb - ppm AI of MBIT (MIC end-point; alone QB or in the mixture Qb) (S. aureus ATCC#6538; S. aureus ATCC#6538, contact time 24 hrs, Table 6): 30 ppm
Cb - ppm AI of MBIT (MIC end-point; alone QB or in the mixture Qb) (S. aureus ATCC#6538; S. aureus ATCC#6538, contact time 48 hrs, Table 5): 60 ppm
Cb - ppm AI of MBIT (MIC end-point; alone QB or in the mixture Qb) (S. aureus ATCC#6538; S. aureus ATCC#6538, contact time 48 hrs, Table 6): 60 ppm
Cb, MBIT alone (QB, MIC) (S. aureus ATCC#6538; contact time 24 hrs): 60 ppm AI and 30 ppm AI
Cb, MBIT alone (QB, MIC) (S. aureus ATCC#6538; contact time 48 hrs): 60 ppm AI
Cb - ppm AI of MBIT (MIC end-point; alone QB or in the mixture Qb) (Ps. aeruginosa ATCC#9027; Ps. Aeruginosa ATCC#9027, contact time 24 hrs, Table 5): 100 ppm
Cb - ppm AI of MBIT (MIC end-point; alone QB or in the mixture Qb) (Ps. aeruginosa ATCC#9027; Ps. Aeruginosa ATCC#9027, contact time 48 hrs, Table 5): 175 ppm
Cb - ppm AI of MBIT (MIC end-point; alone QB or in the mixture Qb) (Ps. aeruginosa ATCC#9027; Ps. aeruginosa ATCC#9027, contact time 24 hrs, Table 6): 100 ppm
Cb - ppm AI of MBIT (MIC end-point; alone QB or in the mixture Qb) (Ps. aeruginosa ATCC#9027; Ps. aeruginosa ATCC#9027, contact time 48 hrs, Table 6): 175 ppm
Cb, MBIT alone (QB, MIC) (Ps. aeruginosa ATCC#9027; contact time 24 hrs): 100 ppm AI
Cb, MBIT alone (QB, MIC) (Ps. aeruginosa ATCC#9027; contact time 48 hrs): 175 ppm AI

CCCCCCCCn1sccc1=O [OIT, 2-N-octyl-4-isothiazolin-3-one]
Ca, first component alone (QA, MIC) ([1]; contact time 3 days): 0.65 ppm AI
Ca, first component alone (QA, MIC) ([1]; contact time 7 days): 8.75 ppm AI
Ca, first component alone (QA, MIC) ([2]; contact time 48 hrs): 3.25 ppm AI
Ca, first component alone (QA, MIC) ([2]; contact time 72 hrs): 3.25 ppm AI
Ca, first component alone (QA, MIC) (S. aureus ATCC#6538; contact time 24 hrs): 30 ppm AI
Ca, first component alone (QA, MIC) (S. aureus ATCC#6538; contact time 48 hrs): 200 ppm AI
Ca, first component alone (QA, MIC) (Ps. aeruginosa ATCC#9027; contact time 24 hrs): 650 ppm AI
Ca, first component alone (QA, MIC) (Ps. aeruginosa ATCC#9027; contact time 48 hrs): 650 ppm AI

CCCC1COC(Cn2cncn2)(c2ccc(Cl)cc2Cl)O1 (stereo not shown) [propiconazole]
MIC ([1]; ATCC16404, 72 h, A. niger ATCC # 16404, contact time 3 days, read-out: Ca - ppm AI of Propiconazole (MIC end-point; alone QA or in the mixture Qa)): 52.5 µg/mL
MIC ([1]; ATCC16404, 168 h, A. niger ATCC # 16404, contact time 7 days, read-out: Ca - ppm AI of Propiconazole (MIC end-point; alone QA or in the mixture Qa)): 87.5 µg/mL
MIC ([2]; C. albicans ATCC # 10231, contact time 48 hrs, read-out: Ca - ppm AI of Propiconazole (MIC end-point; alone QA or in the mixture Qa)): 525 µg/mL
MIC ([2]; C. albicans ATCC # 10231, contact time 72 hrs, read-out: Ca - ppm AI of Propiconazole (MIC end-point; alone QA or in the mixture Qa)): 525 µg/mL
MIC (S. aureus ATCC#6538; S. aureus ATCC#6538, contact time 24 hrs, read-out: Ca - ppm AI of Propiconazole (MIC end-point; alone QA or in the mixture Qa)): 1100 µg/mL
MIC (S. aureus ATCC#6538; S. aureus ATCC#6538, contact time 48 hrs, read-out: Ca - ppm AI of Propiconazole (MIC end-point; alone QA or in the mixture Qa)): 1100 µg/mL
MIC (Ps. aeruginosa ATCC#9027; Ps. aeruginosa ATCC#9027, contact time 24 hrs, read-out: Ca - ppm AI of Propiconazole (MIC end-point; alone QA or in the mixture Qa)): 875 µg/mL
MIC (Ps. aeruginosa ATCC#9027; Ps. aeruginosa ATCC#9027, contact time 48 hrs, read-out: Ca - ppm AI of Propiconazole (MIC end-point; alone QA or in the mixture Qa)): 875 µg/mL

CC(C)(C)C(O)(CCc1ccc(Cl)cc1)Cn1cncn1 (stereo not shown) [tebuconazole]
MIC ([1]; ATCC16404, 72 h, A. niger ATCC # 16404, contact time 3 days, read-out: Ca - ppm AI of Tebuconazole (MIC end-point; alone QA or in the mixture Qa)): 4.25 µg/mL
MIC ([1]; ATCC16404, 168 h, A. niger ATCC # 16404, contact time 7 days, read-out: Ca - ppm AI of Tebuconazole (MIC end-point; alone QA or in the mixture Qa)): 11 µg/mL
MIC ([2]; C. albicans ATCC # 10231, contact time 48 hrs, read-out: Ca - ppm AI of Tebuconazole (MIC end-point; alone QA or in the mixture Qa)): 110 µg/mL
MIC ([2]; C. albicans ATCC # 10231, contact time 72 hrs, read-out: Ca - ppm AI of Tebuconazole (MIC end-point; alone QA or in the mixture Qa)): 110 µg/mL
MIC (S. aureus ATCC#6538; S. aureus ATCC#6538, contact time 24 hrs, read-out: Ca - ppm AI of Tebuconazole (MIC end-point; alone QA or in the mixture Qa)): 300 µg/mL
MIC (S. aureus ATCC#6538; S. aureus ATCC#6538, contact time 48 hrs, read-out: Ca - ppm AI of Tebuconazole (MIC end-point; alone QA or in the mixture Qa)): 425 µg/mL
MIC (Ps. aeruginosa ATCC#9027; Ps. aeruginosa ATCC#9027, contact time 24 hrs, read-out: Ca - ppm AI of Tebuconazole (MIC end-point; alone QA or in the mixture Qa)): 875 µg/mL
MIC (Ps. aeruginosa ATCC#9027; Ps. aeruginosa ATCC#9027, contact time 48 hrs, read-out: Ca - ppm AI of Tebuconazole (MIC end-point; alone QA or in the mixture Qa)): 1100 µg/mL
